Assay results reported in PMC8910733, “Cyclin-Dependent Kinases (CDKs) and the Human Cytomegalovirus-Encoded CDK Ortholog pUL97 Represent Highly Attractive Targets for Synergistic Drug Combinations” (International Journal of Molecular Sciences, 2022).
Values joined by “and” are separate entries in the source; they are usually repeats but may differ in a detail not shown here. Equal entries are not always repeated. Where two headings read alike, the source gives them in different places.

What was measured:
[1] = neutral red assay (NRA), drug-induced cytotoxicity; type: cell-based, human; details: human
Protocol: (§1) Drug induced cytotoxicity in HFFs was measured as a reduction of cell viability determined by neutral red uptake assay (NRA), as described previously. Briefly, HFFs treated with compounds for 7 d were incubated with a final concentration of 40 μg/mL neutral red (Sigma Aldrich, St. Louis, MO, USA) for 3 h. Incorporated neutral red was released from the cells by incubation with destaining solution (50% ethanol, 49% H2O, 1% acetic acid) and subsequently quantitated in a microplate reader (PerkinElmer, Waltham, MA, USA) by fluorescence measurement using 560/630 nm for excitation/emission, respectively.

[2] = system: mock-infected primary human foreskin fibroblasts (HFFs); experiment: neutral red assay (NRA), drug-induced cytotoxicity; type: cell-based; details: single treatment; mock-infected HFFs, 7 d; mean ± SD
Protocol: as §1

HCMV AD169-GFP [3] = experiment: antiviral drug treatment in cyclin H knock-out HFFs; details: CycH KO HFFs
Protocol: (§2) To achieve a transient knock-out of cyclin H, app. 1.5 × 10^5 HFFs/well were grown in 12-well culture plates and, starting the following day, incubated for 24 h with 0.5 mL of lentiviral supernatant (a mixture containing all six gRNAs described in 4.9) supplemented with 0.5 mL MEM and 7.5 µg/mL polybrene (Sigma Aldrich, St. Louis, MO, USA) per well. Virus supernatant was replaced by fresh media 24 h later and cells were used for infection experiments (see 4.5 and 4.6) on the following day.
(§3) 12-well culture plates and treated with lentiviral supernatants to achieve a CRISPR/C as9 -media ted
(§4) transient cyclin H knock-down. Subsequently, cells were dir ectly infected with HCMV AD169-GF P for
(§5) 90 min , then fresh medium, supplemented with indicated concentrations of compounds, was added. Cells
(§6) were harvested and lysed 7 d pos t-infection and vira l GFP reporter signa ls were measured in
(§7) quadruplicate. Data are presented as mean values of biological duplicates, adjusted in percent to the
(§8) respective solvent DMSO c on t r ol (ctrl ).

HCMV ΔUL97-GFP BAC213 = experiment: GFP replication assay with deletion mutant
Protocol: Primary human foreskin fibroblasts (HFFs, derived from clinical samples, Children’s Hospital, Erlangen, Germany) were grown in Eagle’s minimal essential medium (MEM) supplemented with 1 × GlutaMAX^TM (both Thermo Fisher Scientific, Waltham, MA, USA), 10 μg/mL gentamicin and 10% fetal bovine serum (FBS, Capricorn, Ebsdorfergrund, Germany). […] Cultured cells were maintained at 37 °C, 5% CO2 and 80% humidity. All cell culture was regularly monitored for absence of mycoplasma contamination (Lonza™ Mycoalert™, Thermo Fisher Scientific, Waltham, MA, USA). […]
Loewe additivity was assessed using an adapted protocol of the HCMV GFP-based replication assay [21, 61] described previously [1]. […] Centrifugation was performed at 3000 rpm for 15 min and clear lysates were subjected to automated GFP quantitation in a Victor X4 microplate reader (PerkinElmer, Waltham, MA, USA). Antiviral efficacy (mean of duplicate measurement of biological duplicates) was expressed as the percentage of solvent control and entered into the CompuSyn software (Version 1.0 [65]; ComboSyn, Inc., Paramus, NJ, USA). Only experiments with an r value > 0.90 and EC50 values close to previously determined concentrations were accepted.

HCMV AD169-GFP [4] = experiment: Loewe additivity fixed-dose assay
Protocol: (§9) Loewe additivity was assessed using an adapted protocol of the HCMV GFP-based replication assay [21, 61] described previously [1]. HFFs were seeded at app. 1.6 × 10^5 cells/well in 12-well culture plates (four plates per assay) and infected on the following day with HCMV AD169-GFP [61] in a dilution resulting in 25% GFP-positive cells at 7 d p.i. (i.e., 1× TCID25^7d). […] Standard protocol comprised a serial dilution of six concentrations/single compound, starting with app. 4–8 × EC50, and a 1:2 serial dilution of eight concentrations of the combination, starting with a combination of half of the highest concentrations of both single dilution series. All infections were performed in biological duplicates. Cells were lysed by the addition of 200 µL lysis buffer/well 7 d p.i., and cell suspensions were mixed and transferred to a 96-well plate. Centrifugation was performed at 3000 rpm for 15 min and clear lysates were subjected to automated GFP quantitation in a Victor X4 microplate reader (PerkinElmer, Waltham, MA, USA). Antiviral efficacy (mean of duplicate measurement of biological duplicates) was expressed as the percentage of solvent control and entered into the CompuSyn software (Version 1.0 [65]; ComboSyn, Inc., Paramus, NJ, USA). Only experiments with an r value > 0.90 and EC50 values close to previously determined concentrations were accepted.

HCMV AD169-GFP [5] = details: for SI: selectivity index CC50/EC50
Protocol: (§10) Primary human foreskin fibroblasts (HFFs, derived from clinical samples, Children’s Hospital, Erlangen, Germany) were grown in Eagle’s minimal essential medium (MEM) supplemented with 1 × GlutaMAX^TM (both Thermo Fisher Scientific, Waltham, MA, USA), 10 μg/mL gentamicin and 10% fetal bovine serum (FBS, Capricorn, Ebsdorfergrund, Germany). […] Cultured cells were maintained at 37 °C, 5% CO2 and 80% humidity. All cell culture was regularly monitored for absence of mycoplasma contamination (Lonza™ Mycoalert™, Thermo Fisher Scientific, Waltham, MA, USA). Recombinant HCMV AD169 expressing green fluorescent protein (AD169-GFP, [61]) and recombinant ORF-UL97-deleted HCMV AD169 expressing green fluorescent protein (ΔUL97-GFP BAC213 [48]) were used for in vitro replication assays.
as §9

HCMV AD169-GFP [6] = experiment: antiviral drug treatment in wild-type HFFs; details: WT HFFs
Protocol: as §2, §3, §4, §5, §6, §7, §8

CDK7 = experiment: confocal immunofluorescence quantitation of CDK7 signal in HFFs; details: HCMV AD169-GFP-infected HFFs, 7 d; MBV 10 µM, LDC4297 0.1 µM, R25 1 µM, abemaciclib 1 µM; untreated mock-infected = 100%; mean ± SEM
HCMV AD169-GFP [7] = experiment: confocal quantitation of GFP reporter signal in HFFs; details: MBV 10 µM, LDC4297 0.1 µM, R25 1 µM, abemaciclib 1 µM; untreated infected = 100%, mock = 0%
HCMV AD169-GFP [8] = experiment: microbe, parasite or virus in culture
Protocol: as §10, §9

[9] = mock-infected primary human foreskin fibroblasts (HFFs), single treatment, mock-infected HFFs, 7 d, mean ± SD, read-out: CC50
[10] = Human betaherpesvirus 5, AD169, single treatment, HCMV AD169-GFP in HFFs, mean ± SD

CC(=O)N[C@@H]1CCC[C@H](C(=O)Nc2cc(-c3cnn4c3CC(C)(C)C4)c(Cl)cn2)C1 [AZD4573]
CC50 at 7 d [1, 9]: 350 ± 90 nM

CC[C@H](Nc1nc(NCc2cnc(C)cc2C)c2ncn(C(C)C)c2n1)[C@@H](C)O [CYC065]
CC50 at 7 d [1, 9]: < 100 nM

CC(C)c1cnn2c(NCc3ccccc3-n3cccn3)nc(OC3CCCNC3)nc12 (stereo not shown) [LDC4297]
CC50 [2]: > 10000 nM | mean replication (in % solvent control) (HCMV AD169-GFP [3]; 0.003 µM): 85% | mean replication (in % solvent control) (HCMV AD169-GFP [3]; 0.025 µM): 32% | mean replication (in % solvent control) (HCMV AD169-GFP [3]; 0.1 µM): 4% | EC50 (HCMV ΔUL97-GFP BAC213; deletion mutant ΔUL97 BAC213 (Figure 5B)): 61 ± 8 nM | EC50 (HCMV AD169-GFP [4]; read-out: EC50 single drugs, single drug, run beside the combination of the same table section): 13 nM and 9 nM and 16 nM | EC90 (HCMV AD169-GFP [4]; read-out: EC90 single drugs, single drug, run beside the combination of the same table section): 97 nM and 147 nM and 88 nM and 124 nM | EC50 (HCMV AD169-GFP [5]; parental HCMV AD169-GFP, in parallel with ΔUL97 mutant (Figure 5A)): 16 ± 5 nM | SI (HCMV AD169-GFP [5]; single treatment): >1000 | EC50 (HCMV AD169-GFP [5]; single treatment, HCMV AD169-GFP in HFFs, mean ± SD): 9 ± 2 nM | mean replication (in % solvent control) (HCMV AD169-GFP [6]; 0.003 µM): 91% | mean replication (in % solvent control) (HCMV AD169-GFP [6]; 0.025 µM): 23% | mean replication (in % solvent control) (HCMV AD169-GFP [6]; 0.1 µM): 7% | CDK7 intensity (CDK7): 172% ± 7% | HCMV AD169-GFP-specific reporter signal (GFP intensity) (HCMV AD169-GFP [7]): below 25%

CC(C)Nc1nc2cc(Cl)c(Cl)cc2n1[C@H]1O[C@@H](CO)[C@H](O)[C@@H]1O [MBV, maribavir]
CC50 at 7 d [1, 9]: > 100000 nM | mean replication (in % solvent control) (HCMV AD169-GFP [3]; 0.31 µM): 21% | mean replication (in % solvent control) (HCMV AD169-GFP [3]; 2.5 µM): 9% | mean replication (in % solvent control) (HCMV AD169-GFP [3]; 10 µM): 6% | EC50 (HCMV ΔUL97-GFP BAC213; Human betaherpesvirus 5): > 20000 nM | EC50 (HCMV AD169-GFP [8]; Human betaherpesvirus 5, AD169, parental HCMV AD169-GFP, in parallel with ΔUL97 mutant (Figure 5A)): 220 ± 260 nM | EC50 (HCMV AD169-GFP [8]; [10]): 350 ± 420 nM | SI (HCMV AD169-GFP [5]; single treatment): >250 | mean replication (in % solvent control) (HCMV AD169-GFP [6]; 0.31 µM): 20% | mean replication (in % solvent control) (HCMV AD169-GFP [6]; 2.5 µM): 6% | mean replication (in % solvent control) (HCMV AD169-GFP [6]; 10 µM): 3% | HCMV AD169-GFP-specific reporter signal (GFP intensity) (HCMV AD169-GFP [7]): below 25%

Cc1c(Br)c(Br)c2c3c1nc(N1CCNCC1)n3CCC2 [SEL120]
CC50 at 7 d [1, 9]: 5900 ± 3850 nM | EC50 (HCMV AD169-GFP [8]; [10]): 79 ± 1 nM | SI (HCMV AD169-GFP [5]; single treatment): 75

CC(C)(C)c1cnc(CSc2cnc(NC(=O)C3CCN(CC(=O)NCCOCCOCCOCCNc4cccc5c4C(=O)N(C4CCC(=O)NC4=O)C5=O)CC3)s2)o1 (stereo not shown) [THAL-SNS032]
CC50 at 7 d [1, 9]: 140 ± 60 nM | EC50 (HCMV AD169-GFP [8]; [10]): 25 ± 2 nM | SI (HCMV AD169-GFP [5]; single treatment): 6

CCc1cnn2c(NCc3ccc[n+]([O-])c3)cc(N3CCCC[C@H]3CCO)nc12 [dinaciclib]
CC50 at 7 d [1]: < 100 nM

CN1CCC(c2c(O)cc(O)c3c(=O)cc(-c4ccccc4Cl)oc23)C1CO (stereo not shown) [riviciclib]
CC50 at 7 d [1, 9]: 1600 ± 60 nM

CC(C)c1cnn2c(NCc3ccccc3)cc(NC[C@H]3CCNC[C@@H]3O)nc12 [samuraciclib]
CC50 at 7 d ([1]; single treatment, mock-infected HFFs, 7 d, mean ± SD, read-out: CC50): 500 ± 210 nM

CVT-313
CC50 [2]: 5570 ± 50 nM

SY1365
CC50 [2]: < 100 nM
